In ChEMBL document CHEMBL4433255, “Small-molecule agents for the treatment of inflammatory bowel disease” (Bioorg Med Chem Lett, 2019):
Each block holds one compound with its values, some of them ahead of it.

Legend:
Integrin alpha-4/beta-7 = target: T1, Integrin alpha-4/beta-7 (Homo sapiens, UniProt P13612+P26010); assay: Antagonist activity at integrin alpha4beta7 expressed in human RPMI8866 cells assessed as reduction in cell adhesion to rat MadCAM incubated for 40 to 60 mins by lactate dehydrogenase assay; format: cell-based
T1 sequence (P13612 whole entry): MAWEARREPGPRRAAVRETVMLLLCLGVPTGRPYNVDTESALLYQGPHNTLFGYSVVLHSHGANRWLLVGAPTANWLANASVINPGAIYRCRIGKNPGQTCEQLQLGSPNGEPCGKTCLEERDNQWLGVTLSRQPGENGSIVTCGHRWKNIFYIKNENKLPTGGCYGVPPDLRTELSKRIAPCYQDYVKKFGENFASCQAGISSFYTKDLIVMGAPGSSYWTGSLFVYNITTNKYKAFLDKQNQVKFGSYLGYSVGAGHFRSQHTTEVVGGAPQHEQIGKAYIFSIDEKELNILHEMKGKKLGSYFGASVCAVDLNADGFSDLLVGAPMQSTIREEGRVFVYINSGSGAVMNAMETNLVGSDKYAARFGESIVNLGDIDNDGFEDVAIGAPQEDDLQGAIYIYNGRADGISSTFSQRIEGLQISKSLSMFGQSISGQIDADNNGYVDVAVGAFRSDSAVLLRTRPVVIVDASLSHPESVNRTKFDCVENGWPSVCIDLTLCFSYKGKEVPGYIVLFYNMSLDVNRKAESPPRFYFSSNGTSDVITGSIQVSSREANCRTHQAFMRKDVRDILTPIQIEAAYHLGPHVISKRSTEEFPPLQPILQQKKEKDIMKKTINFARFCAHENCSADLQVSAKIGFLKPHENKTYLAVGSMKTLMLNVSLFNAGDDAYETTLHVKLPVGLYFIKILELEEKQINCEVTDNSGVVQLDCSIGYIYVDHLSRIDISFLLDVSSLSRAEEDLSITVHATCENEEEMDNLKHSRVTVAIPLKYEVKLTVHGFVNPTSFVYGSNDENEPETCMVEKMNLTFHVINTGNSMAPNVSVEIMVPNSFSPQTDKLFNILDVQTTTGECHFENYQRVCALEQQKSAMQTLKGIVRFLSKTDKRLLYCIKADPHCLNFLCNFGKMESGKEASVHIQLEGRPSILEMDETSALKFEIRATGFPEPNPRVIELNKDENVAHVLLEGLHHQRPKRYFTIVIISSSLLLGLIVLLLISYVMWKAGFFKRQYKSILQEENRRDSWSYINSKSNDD
T1 sequence (P26010 whole entry): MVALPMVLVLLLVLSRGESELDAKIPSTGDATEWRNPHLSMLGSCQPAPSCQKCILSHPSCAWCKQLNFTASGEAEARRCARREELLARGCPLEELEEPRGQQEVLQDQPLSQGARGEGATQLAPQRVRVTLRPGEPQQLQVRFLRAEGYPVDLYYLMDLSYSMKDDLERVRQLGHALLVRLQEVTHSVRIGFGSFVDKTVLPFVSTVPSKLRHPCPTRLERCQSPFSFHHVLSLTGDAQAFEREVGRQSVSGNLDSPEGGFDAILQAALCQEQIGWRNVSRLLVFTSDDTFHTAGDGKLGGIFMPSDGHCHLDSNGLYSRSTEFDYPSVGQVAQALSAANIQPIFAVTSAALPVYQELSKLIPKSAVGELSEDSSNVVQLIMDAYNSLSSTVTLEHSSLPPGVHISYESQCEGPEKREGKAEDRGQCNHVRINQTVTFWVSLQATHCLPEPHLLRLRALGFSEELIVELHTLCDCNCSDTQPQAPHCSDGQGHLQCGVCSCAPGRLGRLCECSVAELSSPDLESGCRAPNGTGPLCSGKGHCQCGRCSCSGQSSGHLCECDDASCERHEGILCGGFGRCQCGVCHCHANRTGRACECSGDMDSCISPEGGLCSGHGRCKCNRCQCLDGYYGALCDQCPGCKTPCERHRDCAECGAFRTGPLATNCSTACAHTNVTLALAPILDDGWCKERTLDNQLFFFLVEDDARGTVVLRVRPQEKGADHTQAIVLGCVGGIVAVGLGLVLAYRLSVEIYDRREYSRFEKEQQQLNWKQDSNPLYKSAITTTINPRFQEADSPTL

Integrin alpha-4/beta-1 = Integrin alpha-4/beta-1 (Homo sapiens, UniProt P05556+P13612); assay: Antagonist activity at integrin alpha4beta1 expressed in human Jurkat cells assessed as reduction in cell adhesion to human VCAM-1 incubated for 40 to 60 mins by lactate dehydrogenase assay; format: cell-based
Integrin alpha-4/beta-1, sequence (P05556 whole entry, one chain of several): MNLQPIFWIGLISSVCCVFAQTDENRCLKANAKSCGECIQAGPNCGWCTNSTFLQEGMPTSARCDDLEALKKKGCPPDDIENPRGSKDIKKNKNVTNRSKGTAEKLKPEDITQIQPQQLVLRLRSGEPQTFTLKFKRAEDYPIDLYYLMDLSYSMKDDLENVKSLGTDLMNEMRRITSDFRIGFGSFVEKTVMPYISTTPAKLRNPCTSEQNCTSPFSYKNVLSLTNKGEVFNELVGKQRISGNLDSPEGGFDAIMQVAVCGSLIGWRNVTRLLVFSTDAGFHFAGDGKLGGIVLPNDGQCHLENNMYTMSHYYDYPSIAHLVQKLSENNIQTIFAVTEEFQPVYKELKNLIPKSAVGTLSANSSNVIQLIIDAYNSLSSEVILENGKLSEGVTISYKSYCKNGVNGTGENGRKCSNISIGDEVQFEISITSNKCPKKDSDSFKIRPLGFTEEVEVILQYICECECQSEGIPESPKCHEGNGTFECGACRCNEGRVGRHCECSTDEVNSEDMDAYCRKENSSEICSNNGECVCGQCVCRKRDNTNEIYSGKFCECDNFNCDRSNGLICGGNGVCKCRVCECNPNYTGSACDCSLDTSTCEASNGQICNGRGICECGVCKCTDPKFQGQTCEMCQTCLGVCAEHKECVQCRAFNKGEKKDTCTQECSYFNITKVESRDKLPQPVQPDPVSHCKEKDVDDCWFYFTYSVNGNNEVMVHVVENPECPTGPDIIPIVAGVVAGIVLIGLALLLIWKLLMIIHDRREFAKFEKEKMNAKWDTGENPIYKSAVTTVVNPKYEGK

Mus musculus = assay: Immunosuppressive activity in BALB/c mouse assessed as inhibition of leukocyte homing to peyer's patches orally dosed by FACS analysis; format: functional, organism-based
[1] = Inhibition of IL-10 deficient BALB/c mouse CD4 positive T-cell migration by immunofluorescence method relative to control; format: functional
[2] = Inhibition of recombinant human BCR-JAK1 expressed in mouse Ba/F3 cells assessed as reduction in pSTAT5 level incubated for 30 mins by AlphaScreen assay; format: cell-based; settings: BaF3, 0.5 h
Homo sapiens [3] = organism: Homo sapiens; assay: Selectivity ratio of EC50 for recombinant human BCR-JAK1 expressed in mouse Ba/F3 cells to EC50 for recombinant human TEL-JAK2 expressed in mouse Ba/F3 cells; format: cell-based
Homo sapiens [4] = organism: Homo sapiens; assay: Selectivity ratio of EC50 for recombinant human BCR-JAK1 expressed in mouse Ba/F3 cells to EC50 for recombinant human TEL-JAK3 expressed in mouse Ba/F3 cells; format: cell-based
Homo sapiens [5] = organism: Homo sapiens; assay: Selectivity ratio of EC50 for recombinant human BCR-JAK1 expressed in mouse Ba/F3 cells to EC50 for recombinant human TEL-TYK2 expressed in mouse Ba/F3 cells; format: cell-based
BaF3 = assay: Inhibition of chemotaxis in mouse BAF3 cells; format: functional, cell-based
[6] = target: Sphingosine 1-phosphate receptor 5 (Homo sapiens, UniProt Q9H228); assay: Agonist activity at S1P5 (unknown origin) assessed as stimulation of [35S]GTPgammaS binding incubated for 120 mins in presence of GDP by TopCount scintillation counting method; format: functional
Sphingosine 1-phosphate receptor 5, sequence (Q9H228 whole entry): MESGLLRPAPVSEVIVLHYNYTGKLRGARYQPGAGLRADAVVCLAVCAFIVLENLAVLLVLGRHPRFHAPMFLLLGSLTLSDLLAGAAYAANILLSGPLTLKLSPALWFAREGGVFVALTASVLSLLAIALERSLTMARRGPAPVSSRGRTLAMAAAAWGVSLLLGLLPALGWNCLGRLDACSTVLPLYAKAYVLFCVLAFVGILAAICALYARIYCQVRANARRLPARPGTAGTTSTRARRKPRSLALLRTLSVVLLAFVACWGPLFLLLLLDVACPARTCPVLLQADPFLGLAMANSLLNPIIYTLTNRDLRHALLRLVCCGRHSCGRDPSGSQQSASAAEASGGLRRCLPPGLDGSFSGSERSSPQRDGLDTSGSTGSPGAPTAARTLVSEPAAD

Rattus norvegicus = assay: Antiinflammatory activity in Sprague-Dawley rat model of TNBS-induced colitis assessed as reduction in number of circulating lymphocytes at 0.6 mg/kg, po dosed 2 hrs after TNBS treatment and continued daily for 7 days by gavage and measured up to 24 hrs post treatment relative to control; format: functional; design: scale not given: the % may be the effect or the level left

EC50 (Integrin alpha-4/beta-7): 1.4 nM
EC50 (Integrin alpha-4/beta-1): 5.4 nM
EC50 (Mus musculus): 180 nM
SMILES: CN(C)c1ccc2c(c1)c(=O)n(-c1ccc(C[C@H](NC(=O)c3c(Cl)cccc3Cl)C(=O)O)cc1)c(=O)n2C
inhibition (INH) [1]: >95%

EC50 [2]: 14 nM
SMILES: CC[C@@H]1CN(C(=O)NCC(F)(F)F)C[C@@H]1c1cnc2cnc3[nH]ccc3n12 [UPADACITINIB]
Ratio EC50 (Homo sapiens [3]): 42
Ratio EC50 (Homo sapiens [4]): 133
Ratio EC50 (Homo sapiens [5]): 192

EC50 (BaF3): 2.8 nM
SMILES: CC(C)(C)c1ccc(S(=O)(=O)Nc2ccc(Cl)cc2C(=O)c2cc[n+]([O-])cc2)cc1 [VERCIRNON]

EC50 [6]: 4.3 nM
SMILES: CC(C)Oc1ccc(-c2nc(-c3cccc4c3CC[C@@H]4NCCO)no2)cc1C#N [OZANIMOD]
Activity (Rattus norvegicus): 51%
